# According to patent US20250255293A1, “TISSUE DECONTAMINATION AND PRESERVATION SYSTEM” (priority 2024, published 2025):
# Several values for one entry are separate records, joined by “and”; a condition that tells them apart may be missing. Equal entries are not always repeated. Where two headings read alike, the source gives them in different places.
# Assays:
# cells in bone = conditions: decontamination with 2% chlorhexidine gluconate; cited from earlier work
# [1] = tested on: chondrocytes of osteoarticular fracture fragments; assay: Viable chondrocyte density, live-dead calcein AM / ethidium homodimer assay (Example 3); format: cell-based, canine; conditions: for Viable Chondrocyte Density, mean (SD): 20 min immersion (10% povidone-iodine or 0.002% chlorhexidine)
# Source text: Purpose-bred hounds (n=16) were humanely euthanized, immediately after which an open articular fracture in both elbows (n=32) was created using a captive bolt pistol. Each dog was positioned in sternal recumbency with one forelimb extended and secured in a custom made positioning apparatus. Fur was not clipped and no aseptic preparation or techniques were implemented. A captive bolt stunner pistol with a 4.75-inch penetrating pin and 1.25 grain cartridge was centered on the cranial (anterior) aspect of the distal humerus, immediately proximal to the joint. With firm pressure against the secured elbow, the pistol was discharged, and the procedure was repeated for the contralateral elbow. Soft tissues were removed aseptically and the distal humerus (n=32), proximal radius (n=32), and trochlea (n=32) were osteotomized and processed under operating room conditions in 1 of 3 ways: 1) Betadine ([…]): 0.9% saline irrigation (1 L), 10% povidone-iodine solution immersion (20 min), saline irrigation; 2) Chlorhexidine (n=42): saline irrigation, 0.002% chlorhexidine solution immersion (20 min), saline irrigation; 3) Control (n=12): untreated. Each osteoarticular fragment was placed in 200 ml of MOPS® solution (500 ml DMEM, 5 ml ITS (insulin (10 mg/L), transferrin 55 mg/L), selenium (6.7 μg/L)), 5 ml total penicillin (100 U/ml), streptomycin (100 μg/ml), amphotericin B (2.5 μg/ml), 5 ml L-glutamine (2 mM), 5 ml non-essential amino acids (0.1 mM), 1 ml ascorbic acid (50 ng/ml), and 5.46 ml dexamethasone (0.1 μM)) in a sterile container and stored under standard room temperature and humidity conditions for 7 (n=46) or 14 (n=48) days. At each time point, viable chondrocyte density (VCD) and quantitative microbial culture assessments were assayed, yielding a count of colony forming units (CFU) per specimen.
# Viable chondrocyte density (VCD) was evaluated using a live-dead calcein AM (live stain) and ethidium homodimer (dead stain) assay, as previously described (Cook, et al., Am. J. Sports Med. 44:1260-1268, 2016). A minimum of two images from each osteochondral fragment were assessed via fluorescent microscopy. The VCD was determined by counting the number of viable cells in each image and dividing this by the area of the tissue in the image (#of viable cells/area of cartilage tissue mm^2). This methodology was aimed at providing an objective and quantifiable assessment of cell viability post-treatment.
# Univariate comparison of VCD and CFU were performed via Kruskal-Wallis and Chi-squared test. Multivariate linear regression was used, controlling for osteotomy site and storage time, to determine the correlation between processing method and VCD or CFU. Data manipulation and statistical analysis were performed using R software.
# [2] = tested on: canines with grade 3 open femoral bicondylar fracture; assay: Functional outcomes after reimplantation of decontaminated fracture fragment (Example 4); format: in vivo, canine
# Experimental: A grade 3 open femoral bicondylar fracture was created in 3 canines. A lateral parapatellar approach was used, the fragment was cultured and retrieved. The fragment was irrigated, treated with 0.002% chlorhexidine for 20 minutes, irrigated, and stored in MOPS® for 7 days, after which the fragment was reimplanted, and both condyles were repaired with 3.5 mm cannulated lag screws. After 3 months, quantitative bacterial cultures (CFU/g; Table 2) and functional outcomes (Table 3) were measured.
# Staphylococcus aureus = conditions: 20-minute immersion in 2% chlorhexidine, grossly contaminated bone segments; cited from earlier work
# [3] = tested on: contaminated osteochondral tissues; conditions: 10% povidone-iodine or 0.4% chlorhexidine, 20-minute immersion; cited from earlier work
# human chondrocyte = conditions: cited from earlier work
# [4] = 3 months after reimplantation of fragment treated with 0.002% chlorhexidine and stored in MOPS 7 days
structure (smiles),measurement,setting,value
"[H]/N=C(\N/C(=N/[H])NCCCCCCNC(=N)NC(=N)Nc1ccc(Cl)cc1)Nc1ccc(Cl)cc1 [Chlorhexidine, chlorhexidine gluconate]",cell viability in bone,cells in bone,complete loss of cell viability
same,mean VCD,[1]; at 7 days,772
same,mean VCD,[1]; at 14 days,710
same,increase of VCD relative to control treatment,"[1]; multivariate linear regression, controlling for storage timing and osteotomy site",377 VCD
same,maintenance of chondrocyte viability (in words),"[1]; saline irrigation, 0.002% chlorhexidine immersion, room temperature storage in MOPS",maintaining chondrocyte viability for up to 14 days
same,"Viable Chondrocyte Density, mean (SD)",[1]; storage time 7 days in MOPS at room temperature,772.3 (257.0) mm^−2
same,"Viable Chondrocyte Density, mean (SD)",[1]; storage time 14 days in MOPS at room temperature,709.5 (338.0) mm^−2
same,Function (VAS) Post,[2]; [4],9 and 8.8 and 9.3
same,ROM Post,[2]; [4],101 degrees and 97 degrees and 104 degrees
same,Pain (VAS) Post,"[2]; Post, individual dogs",0
same,Pain (VAS) Pre,"[2]; Pre, individual dogs",1.2 and 1.9 and 0.6
same,Function (VAS) Pre,"[2]; baseline, individual dogs",10
same,ROM Pre,"[2]; baseline, individual dogs",108 degrees and 107 degrees and 109 degrees
same,removal of Staphylococcus aureus burden,Staphylococcus aureus,> 99%
same,decontamination of contaminated osteochondral tissues,[3],effective at fully decontaminating
same,chondrocyte viability after treatment,"human chondrocyte; 0.002% chlorhexidine gluconate, 7 days in tissue culture, listed as Chlorhexidine Gluconate",preserving chondrocyte viability for up to 7 days
same,chondrocyte viability after treatment,"human chondrocyte; 0.002% chlorhexidine gluconate, 7 days in tissue culture, listed as chlorhexidine gluconate",maintain chondrocyte viability at day-0 level for 7 days
same,chondrocyte viability after treatment,human chondrocyte; higher concentrations of CHG than 0.002%,significant chondrocyte viability loss within 24 hours
